In a melting point compilation (Tetko et al.; mined from patent text by program, amines drawn as free bases though some values may be those of a salt):
Where a name gives a salt, the structure may show the parent alone. Residues, ends and D or L forms follow the SMILES beside them. *: point of attachment. Tfa = O=C(C(F)(F)F)*

SMILES | melting point [°C]
CCCNC(=O)C1(CCCCC#N)c2ccccc2-c2ccccc21 | 102 to 104
CC(=O)c1ccccc1C(O)=S | 127 to 129
Cc1ccccc1CN1CCN(C)CC1C1=NCCN1 (stereo not given) | 156 to 158
COc1ccc(-c2nc(Sc3ccccc3OC)[nH]c2-c2ccc(OC)cc2)cc1 | 161
CC1=C(C(=O)c2ccc3c(c2)CCN(C(N)=O)C3)C(C)(C)CCC1 | 86.4 to 87.6
CNc1nc(-c2cccc(NC(=O)c3cccc(OCc4ccccc4)c3)c2)c2cc(OC)c(OC)cc2n1 | 110 to 112
COC(=O)CCC(=O)c1ccc(-c2ccc(C(C)(C)C)cc2)cc1 | 58 to 62
CC(C)N(O)C(=O)c1c([Si](C)(C)C)sc2ccccc12 | 115 to 118
CCCCNc1cc(C(=O)O)cc(S(N)(=O)=O)c1Oc1ccc(N)cc1 | 264
FC(F)(F)c1cc(-c2ccc(Cl)c(Cl)c2)nc2c(-c3nc(Nc4ccccn4)no3)cnn12 | 289
Cc1ccc(C(O)C(=O)c2ccc(Br)cc2)cc1 (stereo not given) | 80 to 82
O=C(Cn1ccnc1[N+](=O)[O-])NCCO | 164 to 165
CCCCc1cn(CCCC)c(=O)n1Cc1ccc(-c2cccnc2-c2nnn[nH]2)cc1 | 178 to 180
CC1CC=C(c2nnn[nH]2)CN1CC(=O)O (stereo not given) | 136 to 138
COc1ccc2c(Br)c(C)sc2c1 | 80 to 81
O=CCCc1c[nH]c2ccc(F)cc12 | 79 to 80
O=C(Nc1ccc2cc(CN3CCCC3)ccc2c1)N1CCC(c2ccccc2)CC1 | 193 to 195
O=C(O)C1CCc2c([nH]c3ccc(O)cc23)C1 (stereo not given) | 255 to 257
Cc1nc2c(/C=C/c3ccccc3)cccn2c1C | 240 to 255
COC(=O)c1c(C(=O)O)cc2ccc3c(c2c1-c1ccc2c(c1)OCO2)OCO3 | 273 to 275
Nc1cc(C(=O)N(Cc2ccccc2)Cc2ccccc2)ccc1OCc1ccccc1 | 81
CC1(C)CCc2c(N3CCSCC3)nc3sc4c(NCc5ccccn5)ncnc4c3c2C1 | 225 to 226
CC(=O)Nc1c(C(=O)c2cccc(OCc3ccccc3)c2)[nH]c2cc(Cl)ccc12 | 159 to 161
CCOC(=O)C=CN1CCCC1 | 37.5 to 39.5
COc1cc(C(F)(F)F)cc(OC)c1-c1csc(NC(=O)c2cc3ccccc3[nH]2)n1 | > 260

SMILES | melting point [°C]
c1ccc2c(c1)Sc1ccccc1N2C1CN2CCC1CC2 (stereo not given) | 160 to 162
COc1ccc(CNc2cc(C(=O)Nc3ccccc3)ccc2OC)cc1 | 173 to 174
C#CC[C@H](c1nc2cc(Cl)ccc2c(=O)n1Nc1ccccc1)N(CCCN)C(=O)c1cc2ccccc2s1 | 103 to 106
COc1cc(OC)c2c(C)c(CCN3CCC(O)(c4ccccc4)CC3)c(=O)oc2c1 | 178 to 179
O=C(NC(=O)c1c(F)cccc1F)Nc1ccc(SC(F)(F)C(F)F)cc1F | 177 to 179
O=C1Nc2ccccc2SCC1c1ccc(Cl)cc1 (stereo not given) | 180
NS(=O)(=O)c1ccccc1OC(F)(F)C(F)Cl (stereo not given) | 113 to 116
Cc1c(Cc2cccc3ccccc23)c(=O)oc2cc(O)cc(O)c12 | 275 to 280
C[Si](C)(C)/C=C/c1c(N)nc(-c2ccc(Cl)c(F)c2F)nc1C(=O)O | 155 to 157
Oc1ccc(-c2ccc(O)cc2I)c(I)c1 | 171 to 172
Cc1cc(C(=O)O)c(S(N)(=O)=O)s1 | 198
CC(=O)N1C(=O)NC2(C1=O)C(=O)N(Cc1ccc(Cl)c(Cl)c1)c1ccccc12 (stereo not given) | 185 to 187
Nc1ncc(-c2cccc(Cl)c2Cl)nc1C(=O)Nc1cccnc1 | 239 to 241
COCCOc1ncccc1S(N)(=O)=O | 102 to 103
O=C(O)C1(CSCc2ccccc2)Cc2ccccc2O1 (stereo not given) | 125 to 127
COc1ccc(C(=O)Nc2ccccc2)cc1NS(=O)(=O)c1cccs1 | 180 to 183
O=C(COc1ccccc1)Nc1c(Cl)ccc2nc(N3CC[C@@H](O)C3)ccc12 | 233 to 235
O=C(Nc1ccc(CN2CCCCC2)cc1)C1=Cc2cc(-c3ccc(F)cc3)ccc2CC1 | 175 to 176
CCOC(=O)c1ccc(NC(=O)/C=C/c2cnn(C)c2-c2ccc(F)cc2)cc1 | 202 to 203
COc1ncccc1-c1ccc(OC2SCC(O)C(O)C2O)cn1 (stereo not given) | 127
CCSc1oc2ccccc2c(=S)c1C#N | 175 to 179
CC1CC(C)(C)OOC(C)(CCC(=O)NNC(=O)CCC(=O)O)O1 (stereo not given) | 122 to 126
CCOC(=O)c1cn2c(n1)c(OCC)nc1cc(Br)c(Br)cc12 | 247 to 249
Cc1ccc(-c2ncc(N(C)CCCCOCC(=O)O)nc2-c2ccc(C)cc2)cc1 | 161 to 162
COc1ccc(C(C)=O)c2cccc(S(=O)(=O)N(C)C)c12 | 124 to 127

SMILES | melting point [°C]
OC1CCC(n2cnc3cc(Cl)c(Cl)cc32)C1O (stereo not given) | 180 to 182
Cc1nc2nc(SCc3ccccc3)nn2cc1Cl | 160 to 161
CC(C)(C)C(=O)c1c[nH]c2ncc(-c3ccc(N4CCN(CCO)CC4)cc3)nc12 | 211 to 213
CN1Cc2c(C#N)ncn2-c2cccc(Br)c2C1=O | 226 to 228
COC(=O)c1cccc(NC(N)=NC#N)c1 | 203 to 204
CCOC(=O)c1nnc(SC)nc1NCc1ccc(OC)c(Cl)c1 | 101 to 105
CCn1nc(-c2cccc(Cl)c2)c2ncccc2c1=O | 117 to 118
COc1cc(OCC(=O)O)c(C)cc1SCc1ccc(-c2cccc(C(F)(F)F)c2)cc1 | 138 to 139
Cc1cc(CN2N=C(C(F)(F)C(F)(F)F)NC2(O)C(C)(C)C)ccc1[N+](=O)[O-] (stereo not given) | 125 to 128
ClC(=NNc1ccccc1)c1ccc(Br)cc1 | 152 to 153
O=C(OCC(Cl)(Cl)Cl)N1CCCC(C(=O)OCc2ccccc2)(C(=O)OCc2ccccc2)C1 | 76
NS(=O)(=O)c1cc(C(=O)O)cc(NCc2ccccc2)c1Nc1ccccc1 | 248 to 249
COc1cccc(COc2cccc3c2CN(C2CCC(=O)NC2=O)C3=O)c1 (stereo not given) | 225 to 227
O=C(O)CCCCCOc1ccc(OCc2ccccc2)cc1 | 100 to 101
CCCCCCCCCCCCc1c[nH]c2cc(C(=O)O)ccc12 | 181 to 184
CCCCCCCCCCCCSCCOc1ccc(CCC(=O)O)cc1 | 68 to 69
COc1ccc2oc3ccc([N+](=O)[O-])cc3c2c1C(=O)Nc1ccncc1 | 222
N=C(NC1CC1)NN1CCc2cc(Cl)ccc21 | 146 to 149
CCOC(=O)c1c(C)n(Cc2ccc3ccccc3n2)c2ccc(OCc3ccc4ccccc4n3)cc12 | 162 to 163
ON=C(c1ccc2c(c1)OCO2)C(F)(F)F | 96
CCn1c2ccccc2c2oc(C(=O)Cl)cc21 | 127 to 129
COc1nc(N2CCCCC2)nc(OC)c1O | 109
Cc1cc(C)c(Oc2cc(Nc3ccc(C#N)cc3)c([N+](=O)[O-])cc2[N+](=O)[O-])c(C)c1 | 132
C[Si](C)(Cn1ccnc1)c1ccc(-c2ccccc2)cc1 | 51 to 53
O=C(O)C1c2ccccc2C=Cc2ccccc21 | 244 to 245

SMILES | melting point [°C]
CN(Cc1cc(C(F)(F)F)cc(C(F)(F)F)c1)C(=O)c1c(-c2ccccc2C(F)(F)F)c2ccccc2c(=O)n1C | 159 to 160
Cc1cc(Nc2ccnc(Nc3ccc(S(=O)(=O)N(C)C4CCN(CCS(C)(=O)=O)CC4)cc3)n2)ccc1F | 114
CC(C)(C)CC(=O)NC(Cc1ccc(OCc2ccccc2)cc1)C(=O)Nc1c(F)cc(F)cc1F (stereo not given) | 150 to 157
CCNC(=O)C1CCN(C(=O)c2cc(-c3ccccc3)c(=O)n3c2-c2sccc2CC3)CC1 | 134 to 135
Cc1ccc2c(c1)C(N(CCCCC(=O)O)S(C)(=O)=O)CC(C)(C)O2 (stereo not given) | 190 to 195
C1=C(c2cccc3c2ccn3Cc2ccccc2)CCN(Cc2ccccc2)C1 | 154
CCOCc1nc2c(N)nc3cc(-c4cccc(C(=O)N5CCOCC5)c4)ccc3c2n1CC(C)(C)O | 152 to 154
CC(C)(C)OC(=O)NCc1[nH]c(C(=O)O)cc(=O)c1O | > 300
CCOC(=O)c1cccc(NC(=O)C(CO)NS(=O)(=O)c2ccc(Cl)cc2)c1 (racemic) | 142 to 144
CC(C)(C)c1ccc(C(O)CCCCC2CCCCC2)cc1C(C(N)=O)C1c2ccccc2Oc2ccccc21 (stereo not given) | 121 to 122
N#Cc1ccc(-c2oncc2CCCO)cc1 | 82 to 83
CCCN1N=C2C(=Cc3ccc(Cl)cc3)CSCC2C1c1ccc(Cl)cc1 (stereo not given) | 118 to 122
N#CC1CCN(C(=O)c2ccc3nonc3c2)CC1 | 104 to 107
Cc1ccc(N2C(=O)C(O)=C(C(=O)c3ccc(OC(F)(F)F)cc3)C2c2ccc(C(C)C)cc2)nn1 (stereo not given) | 269
COc1ccccc1OCC1(COc2ccccc2OC)NC(C(=O)O)CS1 (stereo not given) | 160 to 162
COc1ccc2cc(-c3cn([C@H]4CN5CCC4CC5)nn3)ccc2c1 | 186
CCCc1c2c(c(NCC)c3c(=O)cc(C(=O)OCC)oc13)CCCC2 | 91.5
O=C(O)c1cc(NCc2ccc(Cl)cc2)ccc1O | 227 to 228
Cc1cc2cc(CN3CCC(CC(=O)N(C)C)CC3)cnc2cc1NC(=O)c1ccc(-c2ccc(F)cc2)cc1 | 219
CC(=O)CCc1ccc(-c2ccccc2F)cc1 | 30
COC(=O)C(Cc1ccccc1)NC(=O)C(CC(=O)O)NC(=O)C(F)(F)F (stereo not drawn) (Tfa-Asp-Phe-OMe; configuration not given here) | 150 to 151
O=c1nc(-c2ccccn2)sc2ccc(F)cc12 | 240
CC1CC(=O)NN=C1c1ccc(NC(=O)c2ccco2)cc1 (stereo not given) | 213 to 216
CC(C)(C)CC(NC(=O)c1ccccc1)Nc1c(Nc2cccnc2Cl)c(=O)c1=O (stereo not given) | 259 to 260
COc1cc(C(C)=O)ccc1OCCCCN1CCC(c2nsc3ccccc23)CC1 | 78 to 80
